What all share (test): Z'-LYTE kinase panel
Holding throughout (format): biochemical

Assay [1] deals with T1, AURKA (Aurora A) (Homo sapiens, UniProt O14965).
T1 construct: purchased ThermoFisher (SelectScreen, Z'-LYTE)
T1 sequence (O14965 1-403): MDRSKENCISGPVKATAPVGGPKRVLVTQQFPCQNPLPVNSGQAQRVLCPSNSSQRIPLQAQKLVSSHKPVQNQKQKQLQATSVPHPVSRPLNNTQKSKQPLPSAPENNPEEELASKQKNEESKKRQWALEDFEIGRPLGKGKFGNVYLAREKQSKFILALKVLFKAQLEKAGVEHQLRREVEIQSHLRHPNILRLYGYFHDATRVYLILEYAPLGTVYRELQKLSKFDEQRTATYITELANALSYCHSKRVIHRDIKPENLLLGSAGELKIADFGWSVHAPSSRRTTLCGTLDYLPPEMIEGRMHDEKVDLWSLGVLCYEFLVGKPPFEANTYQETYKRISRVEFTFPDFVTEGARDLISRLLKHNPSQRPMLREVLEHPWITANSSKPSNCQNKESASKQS
Summed up:
(§1)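 Percent inhibition measured at 10 µM compound using the standard Z′-LYTE protocol, as part of a 225-kinase standard panel screen.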

The target in assay [2] is T2, EPHB2 (Homo sapiens, UniProt P29323).
T2 construct: purchased ThermoFisher (SelectScreen, Z'-LYTE)
T2 sequence (P29323 19-1055): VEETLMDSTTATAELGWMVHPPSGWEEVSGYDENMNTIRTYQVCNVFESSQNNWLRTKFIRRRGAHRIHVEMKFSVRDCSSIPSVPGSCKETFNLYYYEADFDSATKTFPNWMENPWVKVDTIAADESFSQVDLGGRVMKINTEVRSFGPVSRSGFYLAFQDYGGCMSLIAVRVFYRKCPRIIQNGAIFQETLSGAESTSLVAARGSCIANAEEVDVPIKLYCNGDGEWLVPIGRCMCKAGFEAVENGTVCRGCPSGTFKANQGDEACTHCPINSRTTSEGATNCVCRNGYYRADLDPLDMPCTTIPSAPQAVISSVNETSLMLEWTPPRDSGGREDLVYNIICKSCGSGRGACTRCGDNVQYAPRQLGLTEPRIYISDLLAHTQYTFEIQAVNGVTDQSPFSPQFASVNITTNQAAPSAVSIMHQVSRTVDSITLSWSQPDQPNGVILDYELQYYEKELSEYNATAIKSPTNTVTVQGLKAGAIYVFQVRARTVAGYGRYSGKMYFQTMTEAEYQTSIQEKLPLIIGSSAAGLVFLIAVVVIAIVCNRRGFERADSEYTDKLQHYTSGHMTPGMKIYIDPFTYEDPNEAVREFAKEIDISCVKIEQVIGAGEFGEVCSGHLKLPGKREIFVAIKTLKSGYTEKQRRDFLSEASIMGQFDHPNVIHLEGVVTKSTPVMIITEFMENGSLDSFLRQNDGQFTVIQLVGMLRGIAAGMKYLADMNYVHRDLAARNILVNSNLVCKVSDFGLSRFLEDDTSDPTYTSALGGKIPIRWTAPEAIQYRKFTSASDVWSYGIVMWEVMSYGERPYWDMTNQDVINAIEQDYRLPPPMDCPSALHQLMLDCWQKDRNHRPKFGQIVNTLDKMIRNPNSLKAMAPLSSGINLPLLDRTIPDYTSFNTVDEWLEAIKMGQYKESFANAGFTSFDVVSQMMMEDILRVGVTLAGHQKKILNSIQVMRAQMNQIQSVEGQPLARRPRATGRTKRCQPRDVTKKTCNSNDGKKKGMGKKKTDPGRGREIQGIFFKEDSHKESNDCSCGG
Summed up: as §1

The target of assay [3] is T3, GRK5 (Homo sapiens, UniProt P34947).
T3 construct: purchased ThermoFisher (SelectScreen, Z'-LYTE)
The procedure, abridged:
as §1

The target in assay [4] is T4, MAP4K2 (GCK) (Homo sapiens, UniProt Q12851).
T4 construct: purchased ThermoFisher (SelectScreen, Z'-LYTE)
T4 sequence (Q12851 1-820): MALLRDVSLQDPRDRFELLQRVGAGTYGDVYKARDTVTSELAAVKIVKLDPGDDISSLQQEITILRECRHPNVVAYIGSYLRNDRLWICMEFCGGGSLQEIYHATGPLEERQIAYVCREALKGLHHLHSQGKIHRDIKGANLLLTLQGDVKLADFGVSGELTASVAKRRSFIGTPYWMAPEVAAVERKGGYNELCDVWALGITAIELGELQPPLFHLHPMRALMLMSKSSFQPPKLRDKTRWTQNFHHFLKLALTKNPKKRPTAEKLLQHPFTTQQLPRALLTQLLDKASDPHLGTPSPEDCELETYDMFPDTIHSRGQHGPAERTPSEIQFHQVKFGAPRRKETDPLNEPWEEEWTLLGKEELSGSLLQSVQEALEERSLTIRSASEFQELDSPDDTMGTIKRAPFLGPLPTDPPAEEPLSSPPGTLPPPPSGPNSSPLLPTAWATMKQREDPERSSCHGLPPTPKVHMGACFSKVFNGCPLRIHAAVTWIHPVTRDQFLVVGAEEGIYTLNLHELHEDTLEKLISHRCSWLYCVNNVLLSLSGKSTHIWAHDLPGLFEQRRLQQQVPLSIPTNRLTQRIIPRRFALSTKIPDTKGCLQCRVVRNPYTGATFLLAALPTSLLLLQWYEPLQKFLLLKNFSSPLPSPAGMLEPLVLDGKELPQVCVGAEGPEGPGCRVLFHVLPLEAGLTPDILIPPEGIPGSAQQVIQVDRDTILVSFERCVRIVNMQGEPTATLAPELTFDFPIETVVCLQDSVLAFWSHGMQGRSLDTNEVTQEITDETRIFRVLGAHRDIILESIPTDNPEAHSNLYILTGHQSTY
Summed up:
as §1

The target in assay [5] is T5, MAP4K4 (HGK) (Homo sapiens, UniProt O95819).
T5 construct: purchased ThermoFisher (SelectScreen, Z'-LYTE)
The procedure, abridged:
as §1

For assay [6], the target named is T6, PAK7 (KIAA1264) (Homo sapiens, UniProt Q9P286).
T6 construct: purchased ThermoFisher (SelectScreen, Z'-LYTE)
The procedure, abridged:
as §1

The target in assay [7] is T7, SNF1LK2 (Homo sapiens, UniProt Q9H0K1).
T7 construct: purchased ThermoFisher (SelectScreen, Z'-LYTE)
Summed up:
as §1

Assay [8] addresses T8, STK23 (MSSK1) (Homo sapiens, UniProt Q9UPE1).
T8 construct: purchased ThermoFisher (SelectScreen, Z'-LYTE)
Summed up:
as §1

The text below walks through data of article PMC4854315, “Discovery of a novel allosteric inhibitor-binding site in ERK5: comparison with the canonical kinase hinge ATP-binding site” (Acta Crystallographica. Section D, Structural Biology, 2016).

T3 sequence (P34947 whole entry): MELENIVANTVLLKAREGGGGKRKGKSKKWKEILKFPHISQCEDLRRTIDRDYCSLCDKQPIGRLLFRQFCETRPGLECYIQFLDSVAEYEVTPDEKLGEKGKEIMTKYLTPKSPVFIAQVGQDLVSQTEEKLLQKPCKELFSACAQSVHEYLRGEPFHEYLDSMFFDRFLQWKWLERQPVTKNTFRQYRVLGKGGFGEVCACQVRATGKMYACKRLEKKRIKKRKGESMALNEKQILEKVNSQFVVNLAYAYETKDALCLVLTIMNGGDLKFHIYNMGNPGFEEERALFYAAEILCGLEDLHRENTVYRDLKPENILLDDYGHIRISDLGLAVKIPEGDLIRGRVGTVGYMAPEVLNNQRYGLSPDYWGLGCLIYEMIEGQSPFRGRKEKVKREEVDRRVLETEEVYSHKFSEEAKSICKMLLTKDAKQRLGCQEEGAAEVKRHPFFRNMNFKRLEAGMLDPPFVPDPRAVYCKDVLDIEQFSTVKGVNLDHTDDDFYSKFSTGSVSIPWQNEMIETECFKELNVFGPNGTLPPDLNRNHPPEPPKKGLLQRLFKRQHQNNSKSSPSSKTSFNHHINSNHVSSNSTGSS
T7 sequence (Q9H0K1 whole entry): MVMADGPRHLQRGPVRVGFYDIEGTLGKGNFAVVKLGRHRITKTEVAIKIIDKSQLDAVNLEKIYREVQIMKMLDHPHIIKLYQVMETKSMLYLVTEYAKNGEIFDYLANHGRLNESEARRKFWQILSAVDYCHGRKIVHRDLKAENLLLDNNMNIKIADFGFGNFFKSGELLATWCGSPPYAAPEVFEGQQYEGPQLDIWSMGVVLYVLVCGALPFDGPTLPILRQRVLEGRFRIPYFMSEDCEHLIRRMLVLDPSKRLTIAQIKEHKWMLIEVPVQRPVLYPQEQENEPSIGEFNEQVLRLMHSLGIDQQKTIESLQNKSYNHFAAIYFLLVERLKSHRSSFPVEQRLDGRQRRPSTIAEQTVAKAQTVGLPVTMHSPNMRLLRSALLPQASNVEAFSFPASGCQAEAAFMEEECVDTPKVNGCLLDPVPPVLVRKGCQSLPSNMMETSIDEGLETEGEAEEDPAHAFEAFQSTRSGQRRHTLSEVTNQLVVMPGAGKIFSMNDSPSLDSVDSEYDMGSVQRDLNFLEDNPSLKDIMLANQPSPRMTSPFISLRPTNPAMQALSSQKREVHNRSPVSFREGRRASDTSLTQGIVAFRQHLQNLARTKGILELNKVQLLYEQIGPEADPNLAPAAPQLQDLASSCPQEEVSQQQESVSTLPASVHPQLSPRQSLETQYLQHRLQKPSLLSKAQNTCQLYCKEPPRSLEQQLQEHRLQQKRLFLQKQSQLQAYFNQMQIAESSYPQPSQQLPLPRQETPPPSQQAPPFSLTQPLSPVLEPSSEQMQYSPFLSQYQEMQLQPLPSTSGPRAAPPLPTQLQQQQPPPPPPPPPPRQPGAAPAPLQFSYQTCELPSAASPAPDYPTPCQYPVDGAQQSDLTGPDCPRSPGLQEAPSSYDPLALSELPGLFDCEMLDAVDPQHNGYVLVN
T5 sequence (O95819 whole entry): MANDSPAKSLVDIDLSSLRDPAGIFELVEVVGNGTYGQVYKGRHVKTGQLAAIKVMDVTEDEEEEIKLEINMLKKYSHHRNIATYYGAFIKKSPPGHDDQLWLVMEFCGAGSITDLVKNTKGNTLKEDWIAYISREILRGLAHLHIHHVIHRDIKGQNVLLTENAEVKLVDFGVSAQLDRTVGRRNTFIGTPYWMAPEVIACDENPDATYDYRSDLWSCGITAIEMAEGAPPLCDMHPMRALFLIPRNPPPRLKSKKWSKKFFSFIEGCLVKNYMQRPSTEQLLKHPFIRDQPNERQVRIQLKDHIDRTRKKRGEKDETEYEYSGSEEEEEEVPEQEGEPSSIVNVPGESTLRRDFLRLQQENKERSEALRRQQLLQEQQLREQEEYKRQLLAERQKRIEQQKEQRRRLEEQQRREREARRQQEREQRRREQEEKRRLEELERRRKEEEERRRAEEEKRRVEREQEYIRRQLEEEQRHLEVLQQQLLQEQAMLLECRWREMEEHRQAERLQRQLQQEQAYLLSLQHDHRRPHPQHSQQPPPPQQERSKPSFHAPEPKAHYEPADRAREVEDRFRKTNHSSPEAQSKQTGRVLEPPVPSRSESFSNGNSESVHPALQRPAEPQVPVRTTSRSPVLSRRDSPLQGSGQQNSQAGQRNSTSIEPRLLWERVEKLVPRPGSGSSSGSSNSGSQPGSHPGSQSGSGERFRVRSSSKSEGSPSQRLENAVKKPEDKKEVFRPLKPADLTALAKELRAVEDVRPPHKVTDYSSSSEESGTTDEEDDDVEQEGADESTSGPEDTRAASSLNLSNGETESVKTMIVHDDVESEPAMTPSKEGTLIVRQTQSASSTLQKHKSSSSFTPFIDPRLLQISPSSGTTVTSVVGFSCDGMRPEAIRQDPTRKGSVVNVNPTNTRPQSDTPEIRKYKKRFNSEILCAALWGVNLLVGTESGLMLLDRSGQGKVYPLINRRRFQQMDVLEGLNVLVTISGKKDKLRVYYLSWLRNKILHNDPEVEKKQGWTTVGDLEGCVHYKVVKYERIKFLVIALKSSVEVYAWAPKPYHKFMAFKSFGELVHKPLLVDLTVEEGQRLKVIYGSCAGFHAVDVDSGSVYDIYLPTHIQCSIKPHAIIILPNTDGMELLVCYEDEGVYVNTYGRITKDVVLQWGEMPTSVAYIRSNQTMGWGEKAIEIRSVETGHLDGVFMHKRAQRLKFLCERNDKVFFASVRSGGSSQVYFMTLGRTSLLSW
T6 sequence (Q9P286 whole entry): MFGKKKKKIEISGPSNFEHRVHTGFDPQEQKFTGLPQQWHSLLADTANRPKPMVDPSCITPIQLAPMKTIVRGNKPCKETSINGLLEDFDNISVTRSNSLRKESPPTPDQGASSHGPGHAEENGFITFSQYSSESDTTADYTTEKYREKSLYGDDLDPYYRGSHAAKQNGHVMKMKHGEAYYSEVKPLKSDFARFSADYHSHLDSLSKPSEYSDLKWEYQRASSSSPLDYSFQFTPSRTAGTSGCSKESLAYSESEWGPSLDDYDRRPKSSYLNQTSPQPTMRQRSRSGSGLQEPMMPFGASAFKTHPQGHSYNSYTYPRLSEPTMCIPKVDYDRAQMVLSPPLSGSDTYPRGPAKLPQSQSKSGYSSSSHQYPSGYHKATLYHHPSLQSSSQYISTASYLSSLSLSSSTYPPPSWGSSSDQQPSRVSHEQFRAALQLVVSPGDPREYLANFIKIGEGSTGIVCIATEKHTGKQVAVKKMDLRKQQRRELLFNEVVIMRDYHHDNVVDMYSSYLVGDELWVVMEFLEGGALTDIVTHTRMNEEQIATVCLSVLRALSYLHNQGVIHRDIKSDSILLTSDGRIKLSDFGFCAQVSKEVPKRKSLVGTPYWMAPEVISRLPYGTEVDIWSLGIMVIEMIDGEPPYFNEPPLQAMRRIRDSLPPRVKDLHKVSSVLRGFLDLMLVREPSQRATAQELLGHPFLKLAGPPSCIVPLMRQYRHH
T8 sequence (Q9UPE1 whole entry): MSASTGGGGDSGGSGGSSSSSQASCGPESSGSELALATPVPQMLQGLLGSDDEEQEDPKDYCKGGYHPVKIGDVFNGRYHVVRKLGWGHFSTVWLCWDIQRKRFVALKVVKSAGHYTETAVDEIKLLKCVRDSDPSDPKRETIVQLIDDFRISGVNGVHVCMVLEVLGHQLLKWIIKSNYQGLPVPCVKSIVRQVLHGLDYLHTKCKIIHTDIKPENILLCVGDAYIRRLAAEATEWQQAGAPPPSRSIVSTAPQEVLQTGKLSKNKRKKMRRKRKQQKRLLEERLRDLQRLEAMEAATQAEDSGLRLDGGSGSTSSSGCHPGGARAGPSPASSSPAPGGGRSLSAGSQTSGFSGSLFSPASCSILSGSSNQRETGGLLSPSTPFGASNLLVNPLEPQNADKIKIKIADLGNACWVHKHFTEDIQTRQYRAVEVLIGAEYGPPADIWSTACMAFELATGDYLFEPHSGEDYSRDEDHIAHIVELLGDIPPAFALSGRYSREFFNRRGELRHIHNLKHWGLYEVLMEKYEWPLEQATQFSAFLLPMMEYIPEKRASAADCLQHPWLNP

For the compound “XMD8-92 [Compound 2, reference compound]”, the “AURKA (Aurora A) % Inhibition” value in assay [1] (10 µM compound, ATP Km app) was determined as 85%. Besides, the “EPHB2 % Inhibition” value in assay [2] (10 µM compound, ATP Km app) amounted to 18%. For the same compound, in assay [3] (10 µM compound, ATP Km app), the “GRK5 % Inhibition” value was found to be 6%. Further, the “MAP4K2 (GCK) % Inhibition” value in assay [4] (10 µM compound, ATP Km app) is 46%. The “MAP4K4 (HGK) % Inhibition” value in assay [5] (10 µM compound, ATP Km app) is on record as 84%. In addition, the “PAK7 (KIAA1264) % Inhibition” value in assay [6] (10 µM compound, ATP Km app) stood at 6%. Also, in assay [7] (10 µM compound, ATP Km app), the “SNF1LK2 % Inhibition” value turned out to be 62%. Moreover, in assay [8] (10 µM compound, ATP Km app), the “STK23 (MSSK1) % Inhibition” value turned out to be 15%.
Take `Cc1cc(Nc2nc(N)nn2C(=O)NC(C)C)ccc1Cl` [Compound 5]: the inhibition (commonly the drop in the measured response relative to a control, in per cent) at 10 µM in assay [1] was 78%; in assay [2], 7%; in assay [3], -0.422%; in assay [4], 50%; in assay [5], -6%; in assay [6] it was 26%. Further, the inhibition at 10 µM in assay [7] is 74%; in assay [8], -2.48%.
As for `Cc1ncc(-c2nc(Nc3ccc(C(=O)NCCN4CCCCC4)cc3)ncc2F)n1C(C)C` [Compound 3], the inhibition at 10 µM in assay [1] worked out at 82%; in assay [2] it was 97%; in assay [3] it was 39%; in assay [4], 77%; in assay [5], 84%; in assay [6], 71%. The figures for the inhibition at 10 µM in assay [7] and in assay [8] were 88% and 15%, respectively.
